Test results: patent US20060052289A1, “Use of somatostatin analogs in sleep apnea” (priority 2003, published 2006)

Legend:
[1] = test system: patients with predominantly obstructive sleep apnea; assay: Clinical study in obstructive sleep apnea; type: in vivo, human; conditions: s.c. 100-600 μg, 2 months
Protocol: Obstructive Sleep Apnea: 10 patients with predominantly obstructive sleep apnea are treated with Compound A for 2 months. Sleep recordings, blood gases evaluation and endocrinological controls are performed before, on the first night and at 2 months of therapy. In this study, the compounds of the invention, e.g. Compound A, reduce the number of obstructive sleep apnea episodes when administered s.c. at a dose of 100-600 μg.

[2] = Tolerability at dosages required for use; type: in vivo; conditions: free form or pharmaceutically acceptable salt form
[3] = test system: patients with central sleep apnea; assay: Clinical study in central sleep apnea; type: in vivo, human; conditions: s.c. 100-600 μg, 2 months
Protocol: Central Sleep Apnea: 10 patients with central sleep apnea associated with high ventilatory responses to carbon dioxide, are treated with a compound of the invention for 2 months. Sleep recordings, ventilatory control studies (blood gases) and endocrinological controls are performed before, on the first night, at 2 weeks and at 2 months of therapy. In this study, the compounds of the invention, e.g. Compound A, reduce the abnormal high ventilatory responses and the number of central sleep apnea episodes, when administered s.c. at a dose of 100-600 μg.

Substance: cyclo[{4-(NH2—C2H4—NH—CO—O—)Pro}-Phg-DTrp-Lys-Tyr(4-Bzl)-Phe] [Compound A]
- number of obstructive sleep apnea episodes [1]: reduce
- tolerability [2]: well tolerated
- abnormal high ventilatory responses [3]: reduce
- number of central sleep apnea episodes [3]: reduce
